These compounds were tested against Cannabinoid receptor 1 (Rattus norvegicus, UniProt P20272) (assay: Displacement of [3H]CP-55940 from CB1 receptor in Sprague-Dawley rat cerebellar membrane).
Cannabinoid receptor 1, sequence (P20272 whole entry): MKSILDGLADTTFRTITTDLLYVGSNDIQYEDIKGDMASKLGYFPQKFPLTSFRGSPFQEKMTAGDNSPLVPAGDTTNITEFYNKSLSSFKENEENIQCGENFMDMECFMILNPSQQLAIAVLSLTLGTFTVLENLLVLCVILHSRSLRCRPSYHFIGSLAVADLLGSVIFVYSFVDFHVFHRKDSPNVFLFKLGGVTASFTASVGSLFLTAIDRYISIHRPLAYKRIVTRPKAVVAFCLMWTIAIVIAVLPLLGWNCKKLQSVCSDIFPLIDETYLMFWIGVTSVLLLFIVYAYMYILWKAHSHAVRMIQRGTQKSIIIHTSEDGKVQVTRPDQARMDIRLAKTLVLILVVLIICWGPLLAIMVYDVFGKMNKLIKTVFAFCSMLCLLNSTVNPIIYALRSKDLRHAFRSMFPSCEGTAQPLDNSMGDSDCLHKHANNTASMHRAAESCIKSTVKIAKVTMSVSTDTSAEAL
Parameters: species or system Cerebellum
In the case of `Cc1c(-c2nnc(C3(C(F)(F)F)CC3)o2)nc(-c2ccc(Cl)cc2Cl)n1-c1ccc(Cl)cc1`, the IC50 is reported as 0.0551 µM.
`Cc1c(-c2nnc(C(C)(C)C)s2)nc(-c2ccccc2Cl)n1-c1ccc(Cl)cc1` gave an IC50 of 0.0127 µM.
`Cc1c(-c2nnc(C3(c4ccc(Cl)cc4)CC3)s2)nc(-c2ccc(Cl)cc2Cl)n1-c1ccc(Cl)cc1` gave an IC50 of 0.00941 µM.
`Cc1c(-c2nnc(C3(C(F)(F)F)CC3)s2)nc(-c2ccc(Cl)cc2Cl)n1-c1ccc(Cl)cc1` showed an IC50 of 0.0335 µM.
With `CCc1c(-c2nnc(C(C)(C)C)o2)nc(-c2ccccc2Cl)n1-c1ccc(Cl)cc1` the IC50 was 0.0213 µM.
Work on `Cc1c(-c2nnc(CC(C)C)s2)nc(-c2ccc(Cl)cc2Cl)n1-c1ccc(Cl)cc1` yielded an IC50 of 0.0281 µM.
`Cc1c(-c2nnc(CC(C)C)o2)nc(-c2ccc(Cl)cc2Cl)n1-c1ccc(Cl)cc1` showed an IC50 of 0.0394 µM.
Work on `Cc1c(-c2nnc(C3(c4ccc(Cl)cc4)CC3)o2)nc(-c2ccc(Cl)cc2Cl)n1-c1ccc(Cl)cc1` yielded an IC50 of 0.0152 µM.
`Cc1c(-c2nnc(C3(C(F)(F)F)CCC3)s2)nc(-c2ccc(Cl)cc2Cl)n1-c1ccc(Cl)cc1` was tested, and the IC50 was 0.00966 µM.
`Cc1c(-c2nnc(C(C)(C)C)o2)nc(-c2ccccc2Cl)n1-c1ccc(Cl)cc1` gave an IC50 of 0.00529 µM.
`Cc1c(-c2nnc(C3(C(F)(F)F)CCC3)o2)nc(-c2ccc(Cl)cc2Cl)n1-c1ccc(Cl)cc1` was tested, and the IC50 was 0.0167 µM.

What follows are compounds tested against Cannabinoid receptor 2 (Homo sapiens, UniProt P34972) (assay: Displacement of [3H]WIN-55212-2 from human CB2 receptor expressed in CHO cells).
Cannabinoid receptor 2, sequence (P34972 whole entry): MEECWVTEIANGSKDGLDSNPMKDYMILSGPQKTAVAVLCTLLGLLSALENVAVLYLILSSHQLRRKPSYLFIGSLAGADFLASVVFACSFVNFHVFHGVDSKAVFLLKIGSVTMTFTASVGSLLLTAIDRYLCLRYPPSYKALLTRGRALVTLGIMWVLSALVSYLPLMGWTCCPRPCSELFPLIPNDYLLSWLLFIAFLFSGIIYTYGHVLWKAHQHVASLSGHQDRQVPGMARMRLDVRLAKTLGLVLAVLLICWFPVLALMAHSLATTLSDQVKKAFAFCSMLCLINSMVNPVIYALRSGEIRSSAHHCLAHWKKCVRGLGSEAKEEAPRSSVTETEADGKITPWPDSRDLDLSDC
Assay type: cell-based
`CCc1c(-c2nnc(C3(c4ccc(C)cc4)CC3)o2)nc(-c2ccc(Cl)cc2Cl)n1-c1ccc(Br)cc1` was tested, and the IC50 was over 10 µM.
`CCc1c(-c2nnc(C3(c4ccc(Cl)cc4)CCC3)o2)nc(-c2ccc(Cl)cc2Cl)n1-c1ccc(Br)cc1` was tested, and the IC50 was over 10 µM.
Compound `CCc1c(-c2nnc(C3(c4ccc(Cl)cc4Cl)CC3)s2)nc(-c2ccc(Cl)cc2Cl)n1-c1ccc(Br)cc1` has an IC50 of over 10 µM.
`CCc1c(-c2nnc(C3(c4ccccc4)CC3)s2)nc(-c2ccc(Cl)cc2Cl)n1-c1ccc(Br)cc1` was tested, and the IC50 was over 10 µM.
Work on `CCc1c(-c2nnc(C3(c4ccc(OC)cc4)CC3)s2)nc(-c2ccc(Cl)cc2Cl)n1-c1ccc(Br)cc1` yielded an IC50 of over 10 µM.
In the case of `CCc1c(-c2nnc(C3(c4ccc(Cl)cc4Cl)CC3)o2)nc(-c2ccc(Cl)cc2Cl)n1-c1ccc(Br)cc1`, the IC50 is reported as over 10 µM.
With `CCc1c(-c2nnc(C3(c4ccc(C)cc4)CC3)s2)nc(-c2ccc(Cl)cc2Cl)n1-c1ccc(Br)cc1` the IC50 was over 10 µM.
Compound `CCc1c(-c2nnc(C3(c4ccc(Cl)cc4)CCC3)s2)nc(-c2ccc(Cl)cc2Cl)n1-c1ccc(Br)cc1` has an IC50 of over 10 µM.
`CCc1c(-c2nnc(C3(c4ccc(Cl)cc4)CC3)s2)nc(-c2ccc(Cl)cc2Cl)n1-c1ccc(Br)cc1` gave an IC50 of over 10 µM.
